Several values for one entry are separate records, joined by “and”; a condition that tells them apart may be missing. Equal entries are not always repeated. Entries after “also recorded” stand apart in the source; their conditions may differ.
Columns and labels:
Assay type in all cases: cell-based
[1] = system: Aspergillus niger IFO 9455 (An-1); assay: Fragrant vapor antifungal activity (impregnated paper disc on cover of inverted agar plate); settings: 72 hours at 27° C.; for IZ: Diameter of growth inhibition zone: 20 μl fragrance (or 40 μl of 50% ethanol solution) on disc, >85 = growth inhibited over entire plate; for SI: Diameter of spore formation inhibition zone / Growth: Growth status outside the inhibition zone: 20 μl fragrance on disc; for Growth: Growth status outside the inhibition zone: compared with control
Method: (§1) Physiological saline containing 0.05% Tween-80 was added to a slant on which the test organism grew well, and a spore suspension was produced at 1×10^6 CFU (Colony Forming Units)/ml in accordance with ordinary methods. Potato dextrose agar (PDA: Nissui Pharmaceutical) was used for the medium. To begin with, 10 ml of sterile PDA was pipetted into a Petri dish and after it solidified, another 6 ml of PDA containing 1% of the above described spore suspension was overlaid and solidified to prepare the test agar plate. For the fragrance sample, if the sample is in the form of liquid at ordinary temperatures, 20 μl of liquid was directly impregnated into a paper disc (Advantech, diameter: 8 mm, thick material), while a 50% by weight ethanol solution was prepared for crystals or powder, and 40 μl of that solution was then impregnated into the paper disc.
(§2) The test agar plate was placed inversely, and the paper disc impregnated with the fragrance sample was placed in the center of the cover of the agar plate, followed by incubating for 72 hours at 27° C. Evaluation was made based on the diameter (mm) of the mold growth inhibition zone. When mold growth was inhibited over the entire surface of the agar plate, the diameter of the growth inhibition zone was reported as >85 mm. At locations where mold grew outside the inhibition zone, the diameter of the spore formation inhibition zone and the degree of growth were recorded by comparing with a control. The molds used in the test are shown in Table 1, wherein these molds consist of mold species that are isolated at high frequencies from rooms and bath rooms.
(§3) The amount of blended fragrance added to the paper discs was 20 μl each, and only the diameter of the inhibition zone (mm) is indicated for the results.

[2] = system: Aureobasidium pullulans IFO 6353 (Ap-1); assay: as above; settings: 72 hours at 27° C.; for IZ: Diameter of growth inhibition zone: 20 μl fragrance (or 40 μl of 50% ethanol solution) on disc, >85 = growth inhibited over entire plate; for Growth: Growth status outside the inhibition zone / SI: Diameter of spore formation inhibition zone: 20 μl fragrance on disc; for Growth: Growth status outside the inhibition zone: compared with control
Method: as §1, §2, §3

[3] = system: Cladosporium cladosporioides IFO 6348 (Cc-1); assay: as above; settings: 72 hours at 27° C.; for IZ: Diameter of growth inhibition zone: 20 μl fragrance (or 40 μl of 50% ethanol solution) on disc, >85 = growth inhibited over entire plate; for Growth: Growth status outside the inhibition zone: compared with control
Method: as §1, §2, §3

An-1 (Aspergillus niger) = assay: Confirmation of synergistic action of two fragrances (vapor, paper disc); settings: for IZ (diameter of growth inhibition zone) / Growth (growth status outside the inhibition zone) / SI (diameter of spore formation inhibition zone): 72 hours at 27° C.; for IZ (diameter of growth inhibition zone): sample amount on disc: citral 2 μl, benzaldehyde 10 μl, dimethyl tetrahydrobenzaldehyde 20 μl, geraniol 10 μl, octyl aldehyde 20 μl, 9-decen-1-ol 0.5 μl, trans-2-undecenal 3 μl, phenylacetaldehyde 5 μl, A + B = both amounts on one disc; for Growth (growth status outside the inhibition zone): sample amounts as in Table 3 (citral 2 μl, benzaldehyde 10 μl, dimethyl tetrahydrobenzaldehyde 20 μl, geraniol 10 μl, octyl aldehyde 20 μl, 9-decen-1-ol 0.5 μl, trans-2-undecenal 3 μl, phenylacetaldehyde 5 μl; A + B = both); for SI (diameter of spore formation inhibition zone): sample amounts as in Table 3 (citral 2 μl, benzaldehyde 10 μl, dimethyl tetrahydrobenzaldehyde 20 μl, geraniol 10 μl, octyl aldehyde 20 μl, trans-2-undecenal 3 μl, phenylacetaldehyde 5 μl; A + B = both); for Synergistic effect: second fragrance that shows synergistic action with the fragrance component / Antagonistic effect: second fragrance that shows antagonistic action with the fragrance component / Additive effect: second fragrance that shows additive action with the fragrance component: value = combination partner; for Synergistic effect: second fragrance that shows synergistic action with the fragrance component: combined IZ 20 mm or more larger than sum of single IZ; for Antagonistic effect: second fragrance that shows antagonistic action with the fragrance component: combined IZ 20 mm or more smaller than sum of single IZ; for Additive effect: second fragrance that shows additive action with the fragrance component: combined IZ intermediate
Method: An agar plate prepared according to the method of Example 1 was used while using An-1 (Aspergillus niger) for the test fungi. […] 10 μl of the ethanol containing the Table 3 prescribed amount of the fragrance was impregnated into a paper disc. The test agar plate was placed inversely, and the paper disc impregnated with each fragrance alone and a paper disc simultaneously impregnated with two types of fragrances were placed in the center of the cover, followed by incubating for 72 hours at 27° C. and measuring the diameters of the resulting growth inhibition zones.
The results obtained as in Example 2 with other combinations are shown in Tables 4 through 7 as combination examples of respective synergistic, additive and antagonistic actions for each fragrant chemical product (a). […] It should be noted that in order to make the table smaller, combinations that have already been listed once are not listed in other columns of the tables.

SMILES	IZ: Diameter of growth inhibition zone [1] [mm]	SI: Diameter of spore formation inhibition zone [1] [mm]	Growth: Growth status outside the inhibition zone [1]	IZ: Diameter of growth inhibition zone [2] [mm]	Growth: Growth status outside the inhibition zone [2]	IZ: Diameter of growth inhibition zone [3] [mm]	Growth: Growth status outside the inhibition zone ([3]; 20 μl fragrance on disc)	SI: Diameter of spore formation inhibition zone [2] [mm]	IZ (diameter of growth inhibition zone) (An-1 (Aspergillus niger)) [mm]	Growth (growth status outside the inhibition zone) (An-1 (Aspergillus niger))	SI (diameter of spore formation inhibition zone) (An-1 (Aspergillus niger)) [mm]	Synergistic effect: second fragrance that shows synergistic action with the fragrance component (An-1 (Aspergillus niger))	Antagonistic effect: second fragrance that shows antagonistic action with the fragrance component (An-1 (Aspergillus niger))	Additive effect: second fragrance that shows additive action with the fragrance component (An-1 (Aspergillus niger))	SI: Diameter of spore formation inhibition zone ([3]; 20 μl fragrance on disc) [mm]
COC(/C=C/c1ccccc1)OC [Cinnamic aldehyde DMA, cinnamic aldehydodimethylacetal]	35	45	weak	65	slight	0	good								
CC(C)=CCC/C(C)=C/CO [Geraniol]	45	65	good	30	good	70	weak	45	30	weak	45	1-Nonanal	Citronellol,; also recorded: Eugenol	Thymol,	
CC(C)=CCCC(C)CCO (centres unmarked) [Citronellol]	35	55	good	35	weak	35	weak					Citral DMA,; also recorded: Citral DEA,	Thymol and 9-Decen-1-ol	1-Nonanal, and 1-Decanol, and Anisaldehyde	
COc1ccc(C=O)cc1 [Anisaldehyde]	45	60		35		>85		40							
CC(C)c1cccc(=O)c(O)c1 [Hinokitiol]	60		good	70	good	0	good								
O=Cc1ccco1 [Furfural]	>85		none	>85	none	>85	none					Citronellal; also recorded: hexenal, Octyl aldehyde,; also recorded: Trans-2-undecenal,; also recorded: Cumin aldehyde,; also recorded: Geraniol; also recorded: Citronellol; also recorded: Thymol			
O=Cc1ccccc1 [Benzaldehyde]	>85		none	>85	none	>85	none		15	slight	>85				
CC(C)=CCCC(C)=CC=O [Citral]	>85		none	>85	none	>85	none		0	weak	20				
Cc1ccc(C(C)C)c(O)c1 [Thymol]	70	>85	weak	>85	sparse	>85	sparse								
C=C(C)C1CC=C(C=O)CC1 (centres unmarked) [Perill aldehyde]	>85		none	>85	none	>85	none								
CC=Cc1ccc(O)c(OC)c1 [Isoeugenol]	30	50	good	35	good	45	good	40							55
CC(C)=CCCC(C)CC=O (centres unmarked) [Citronellal]	15		weak	>85	sparse	>85	sparse							Thymol, and 1-Decanol, and Citronellol	
COC(=O)c1ccccc1O [Methyl salicylate]	40		weak	65	weak	0	good								
CCCCCCCCC=O [Example 1-nonanal, 1-nonanal]	20		weak	>85	sparse	>85	sparse								
O=CCc1ccccc1 [Phenylacetaldehyde]									25	good	30				
C=C(C)[C@@H]1CC=C(CO)CC1 [Perilla alcohol]	30	40	good	40	slight	45	slight								
COC(C=C(C)CCC=C(C)C)OC [Citral DMA, citral dimethylacetal]	>85		none	>85	none	>85	none								
CC(C=O)Cc1ccc2c(c1)OCO2 (centres unmarked) [Helional]	10	35	good	35	weak	0	weak								

— patent US20020177621A1, “Antifungal fragrance composition” (priority 2000, published 2002)
